# Columns and labels:
# [1] = target: T1, Serine/threonine-protein kinase Nek1 (Homo sapiens, UniProt Q96PY6); assay: Inhibition of human NEK1 using myelin basic protein as substrate assessed as residual activity in presence of [gamma-33P]-ATP by radiometric hotspot kinase assay relative to control
# T1 sequence (Q96PY6 whole entry): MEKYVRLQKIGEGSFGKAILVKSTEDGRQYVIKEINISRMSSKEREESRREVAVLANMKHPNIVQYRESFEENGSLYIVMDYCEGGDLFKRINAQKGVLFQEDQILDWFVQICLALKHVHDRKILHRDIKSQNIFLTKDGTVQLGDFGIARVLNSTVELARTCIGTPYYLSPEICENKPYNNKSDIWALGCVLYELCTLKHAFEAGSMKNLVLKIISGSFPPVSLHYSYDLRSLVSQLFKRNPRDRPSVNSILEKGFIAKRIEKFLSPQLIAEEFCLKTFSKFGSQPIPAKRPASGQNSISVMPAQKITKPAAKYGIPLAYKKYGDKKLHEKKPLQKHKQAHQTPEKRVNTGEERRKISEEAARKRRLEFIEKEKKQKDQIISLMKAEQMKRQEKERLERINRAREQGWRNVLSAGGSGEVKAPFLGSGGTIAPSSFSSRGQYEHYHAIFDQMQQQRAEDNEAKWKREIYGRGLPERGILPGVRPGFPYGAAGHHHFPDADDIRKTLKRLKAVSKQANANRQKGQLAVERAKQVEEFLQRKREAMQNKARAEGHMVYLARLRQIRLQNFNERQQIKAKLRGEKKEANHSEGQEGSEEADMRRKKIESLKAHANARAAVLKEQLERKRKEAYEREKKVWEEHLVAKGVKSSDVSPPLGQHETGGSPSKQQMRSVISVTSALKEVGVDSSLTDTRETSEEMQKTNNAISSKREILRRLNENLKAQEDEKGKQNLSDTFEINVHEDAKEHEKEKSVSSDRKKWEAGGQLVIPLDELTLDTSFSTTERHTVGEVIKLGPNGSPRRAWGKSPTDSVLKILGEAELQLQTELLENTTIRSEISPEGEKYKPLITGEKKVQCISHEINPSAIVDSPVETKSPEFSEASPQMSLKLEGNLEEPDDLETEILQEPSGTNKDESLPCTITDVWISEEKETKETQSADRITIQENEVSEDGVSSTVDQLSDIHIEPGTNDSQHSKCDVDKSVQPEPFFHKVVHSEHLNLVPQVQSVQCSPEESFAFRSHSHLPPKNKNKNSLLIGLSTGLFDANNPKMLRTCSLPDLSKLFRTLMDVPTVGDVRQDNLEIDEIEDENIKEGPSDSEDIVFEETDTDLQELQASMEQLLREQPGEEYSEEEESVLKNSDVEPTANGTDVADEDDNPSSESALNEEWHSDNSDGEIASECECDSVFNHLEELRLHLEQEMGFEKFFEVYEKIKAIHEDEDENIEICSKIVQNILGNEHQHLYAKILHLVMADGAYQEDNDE
# [2] = target: Cyclin-dependent kinase 2/cyclin E1 (Homo sapiens) (UniProt P24864+P24941); assay: Inhibition of human recombinant full length C-terminal His6 tagged CDK2/ N-terminal GST-tagged Cyclin E expressed in baculovirus infected Sf21 insect cells using histone H1 as substrate assessed as residual activity at 1 uM pretreated for 20 mins followed by [33P]-ATP addition measured after 120 mins by radiometric hotspot kinase assay relative to control; settings: time 140.0 min
# [3] = Solubility of the compound in E3 medium with 0.2% DMSO by DAD-HPLC based shake flask method; format: physicochemical
# [4] = Solubility of the compound in DMEM with 1% DMSO by DAD-HPLC based shake flask method; format: physicochemical
# [5] = Permeability across apical to basolateral side in human Caco-2 cells at pH 6.5 at 1 uM; format: ADME, cell-based; settings: Caco-2, pH 6.5, read-out: permeability
# [6] = Permeability across apical to basolateral side in human Caco-2 cells at pH 6.5 assessed as compound recovery at 1 uM; format: ADME, cell-based; settings: Caco-2, pH 6.5, read-out: Drug recovery
# [7] = Permeability across basolateral to apical side in human Caco-2 cells at pH 7.4 assessed as compound recovery at 1 uM; format: ADME, cell-based; settings: Caco-2, pH 7.4, read-out: Drug recovery
# [8] = organism: Danio rerio; assay: Toxicity in zebra fish embryos assessed as phenotype changes at 0.01 to 2.5 uM measured after 96 hrs; format: organism-based; settings: zebrafish, in vivo, dose 0.01-2.5 µM
# [9] = Toxicity in zebra fish embryos assessed as lethality at 1.5 uM measured after 96 hrs relative to control; format: organism-based, Danio rerio; settings: zebrafish, in vivo, read-out: Activity
# [10] = organism: Danio rerio; assay: (§1) Toxicity in wild type zebra fish model of polycystic kidney disease assessed as increase in fluorescence intensity at 0.5 uM incubated for 48 hrs in presence of N-phenyl thiourea further treated with PT-yellow for 20 mins followed by dye washout and incubated in solution containing compound for 96 hrs by fluorescence imaging analysis; format: organism-based; settings: zebrafish, in vivo
# [11] = organism: Danio rerio; assay: as §1, with “minor tubular volume expansion” for “increase in fluorescence intensity”; format: organism-based; settings: zebrafish, in vivo
smiles,measurement,setting,value
COC(=O)c1cccc(-c2cnc3[nH]cc(-c4cccnc4)c3c2)c1,IC50,[1],11.5 nM
same,Activity,[2],1.6%
same,solubility,[3],1.9 µM
same,solubility,[4],4.3 µM
same,Papp A→B at 1 µM,[5],0.13 ×10⁻⁶ cm/s
same,recovery at 1 µM,[6],0.4%
same,recovery at 1 µM,[7],29.6%
same,Activity,[8],Non-Toxic
same,"mortality at 96 h, 1.5 µM",[9],100%
same,Activity,[10],Toxic
same,Activity,[11],Toxic
